POD vs vehicle data for 20 compounds are collected here from the supplement of paper PMC11368000.

The test system of the first experiment is 1535 (donor line of iPSC-derived cardiomyocytes). Put plainly: POD (EC95) for loss of peak frequency (asystole) vs vehicle; higher = less potent (higher point of departure). The note with it: exposure time: 90 min. On the procedure: (§1)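 Human iPSC-derived cardiomyocytes from 16 donors were exposed for 90 min at 37 °C to each PFAS at 0.1, 1, 10 and 100 µM in 0.5% DMSO, 384-well plates. Kinetic Ca2+ flux (FLIPR) and Hoechst nuclei counts were normalised to vehicle wells and fitted with a hierarchical Bayesian Hill model to give donor-specific PODs: EC05 for beat-rate increase or decrease and for decay-to-rise ratio increase (QT proxy), EC95 for peak-frequency loss (asystole), EC10 for total cell number loss. 0.03 µM is the lower bound.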
The compound `O=S(=O)(O)CCC(F)(F)C(F)(F)C(F)(F)C(F)(F)C(F)(F)C(F)(F)C(F)(F)C(F)(F)F` [8:2 Fluorotelomer sulfonic acid] came in with a POD vs vehicle of more than 100 µM.
The same measure, in the same setting: the value for `O=C(O)C(F)(F)C(F)(F)C(F)(F)C(F)(F)C(F)(F)C(F)(F)C(F)(F)C(F)(F)Cl` [9-Chloro-perfluorononanoic_acid] was more than 100 µM; that for `O=P(O)(O)CCC(F)(F)C(F)(F)C(F)(F)C(F)(F)C(F)(F)C(F)(F)C(F)(F)C(F)(F)F` [((Perfluorooctyl)ethyl)phosphonic_acid] was more than 100 µM.
On the same count and under the same terms, then `O=C([O-])C(F)(F)C(F)(F)C(F)(F)C(F)(F)C(F)(F)C(F)(F)C(F)(F)F.[NH4+]` [Ammonium_perfluorooctanoate], with more than 100 µM; and `OCC(F)(F)C(F)(F)C(F)(F)C(F)(F)C(F)(F)C(F)F` [Dodecafluoroheptanol], with 46.3 µM; and `OCC(F)(F)OC(F)(F)C(F)(F)OC(F)(F)C(F)(F)OC(F)(F)F` [Fluorinated_triethylene_glycol_monomethyl_ether], with more than 100 µM.
On the same count and under the same terms, the value for `OCC(F)(F)C(F)(F)C(F)(F)F` [Heptafluorobutanol] was more than 100 µM; that for `NC(=O)C(F)(F)C(F)(F)C(F)(F)F` [Heptafluorobutyramide] was more than 100 µM.
On to `OCC(F)(F)C(F)(F)C(F)(F)CO` [Hexafluoroamylene_glycol], for which the POD vs vehicle was more than 100 µM.
The same measure, in the same setting: then `COC(=O)C(F)(F)C(F)(F)OC(F)(C(F)(F)F)C(F)(F)OC(F)=C(F)F` (stereo not given) [Methyl_perfluoro(3-(1-ethenyloxypropan-2-yloxy)propanoate)], with more than 100 µM; and `NC(=O)C(F)(F)C(F)(F)C(F)(F)C(F)(F)F` [Nonafluoropentanamide], with more than 100 µM.
Same read-out and setting: the value for `NC(=O)C(F)(F)C(F)(F)C(F)(F)C(F)(F)C(N)=O` [Octafluoroadipamide] was more than 100 µM; that for `O=C(O)C(F)(F)C(F)(F)C(F)(F)C(F)(F)C(=O)O` [Octafluoroadipic_acid] was more than 100 µM.
On the same count and under the same terms, the value for `O=C(O)C(F)(F)C(F)(F)C(F)(F)OC(F)(F)F` [Perfluoro(4-methoxybutanoic)_acid] was more than 100 µM; that for `O=C(O)C(F)(F)OC(F)(F)C(F)(F)OC(F)(F)C(F)(F)OC(F)(F)C(F)(F)C(F)(F)C(F)(F)F` [Perfluoro-3,6,9-trioxatridecanoic_acid] was more than 100 µM.
`O=C(O)C(F)(F)OC(F)(F)C(F)(F)OC(F)(F)F` [Perfluoro-3,6-dioxaheptanoic_acid] gave a POD vs vehicle of more than 100 µM.
Still for that read-out and setting: the value for `O=C(O)C(F)(F)OC(F)(F)C(F)(F)OC(F)(F)C(=O)O` [Perfluoro-3,6-dioxaoctane-1,8-dioic_acid] was more than 100 µM; that for `O=C(O)C(F)(F)C(F)(F)OC(F)(F)F` [Perfluoro-3-methoxypropanoic_acid] was more than 100 µM.
Still for that read-out and setting: the value for `O=C(O)C(F)(F)C(F)(F)C(F)(F)OC(F)(C(F)(F)F)C(F)(F)F` [Perfluoro-4-isopropoxybutanoic_acid] was more than 100 µM.
On the same count and under the same terms, then `O=S(=O)(O)C(F)(F)C(F)(F)C(F)(F)C(F)(F)F` [Perfluorobutanesulfonic_acid], with more than 100 µM.

For another experiment, the system named is 1565 (donor line of iPSC-derived cardiomyocytes). The experiment is described as above. The note with it: exposure time: 90 min. On the procedure: as §1
For the compound `O=S(=O)(O)CCC(F)(F)C(F)(F)C(F)(F)C(F)(F)C(F)(F)C(F)(F)C(F)(F)C(F)(F)F` [8:2 Fluorotelomer sulfonic acid], the POD vs vehicle was more than 100 µM.
Same read-out and setting: then `O=C(O)C(F)(F)C(F)(F)C(F)(F)C(F)(F)C(F)(F)C(F)(F)C(F)(F)C(F)(F)Cl` [9-Chloro-perfluorononanoic_acid], with more than 100 µM; and `O=P(O)(O)CCC(F)(F)C(F)(F)C(F)(F)C(F)(F)C(F)(F)C(F)(F)C(F)(F)C(F)(F)F` [((Perfluorooctyl)ethyl)phosphonic_acid], with more than 100 µM.
The same measure, in the same setting: then `O=C([O-])C(F)(F)C(F)(F)C(F)(F)C(F)(F)C(F)(F)C(F)(F)C(F)(F)F.[NH4+]` [Ammonium_perfluorooctanoate], with more than 100 µM.
Compound `OCC(F)(F)C(F)(F)C(F)(F)C(F)(F)C(F)(F)C(F)F` [Dodecafluoroheptanol] returned a POD vs vehicle of 50.6 µM.
On the same count and under the same terms, then `OCC(F)(F)OC(F)(F)C(F)(F)OC(F)(F)C(F)(F)OC(F)(F)F` [Fluorinated_triethylene_glycol_monomethyl_ether], with more than 100 µM; and `OCC(F)(F)C(F)(F)C(F)(F)F` [Heptafluorobutanol], with more than 100 µM.
Still for that read-out and setting: the value for `NC(=O)C(F)(F)C(F)(F)C(F)(F)F` [Heptafluorobutyramide] was more than 100 µM.
On the same count and under the same terms, then `OCC(F)(F)C(F)(F)C(F)(F)CO` [Hexafluoroamylene_glycol], with more than 100 µM.
`COC(=O)C(F)(F)C(F)(F)OC(F)(C(F)(F)F)C(F)(F)OC(F)=C(F)F` (stereo not given) [Methyl_perfluoro(3-(1-ethenyloxypropan-2-yloxy)propanoate)] returned a POD vs vehicle of more than 100 µM.
Same read-out and setting: then `NC(=O)C(F)(F)C(F)(F)C(F)(F)C(F)(F)F` [Nonafluoropentanamide], with more than 100 µM; and `NC(=O)C(F)(F)C(F)(F)C(F)(F)C(F)(F)C(N)=O` [Octafluoroadipamide], with more than 100 µM; and `O=C(O)C(F)(F)C(F)(F)C(F)(F)C(F)(F)C(=O)O` [Octafluoroadipic_acid], with more than 100 µM.
On the same count and under the same terms, then `O=C(O)C(F)(F)C(F)(F)C(F)(F)OC(F)(F)F` [Perfluoro(4-methoxybutanoic)_acid], with more than 100 µM.
On the same count and under the same terms, then `O=C(O)C(F)(F)OC(F)(F)C(F)(F)OC(F)(F)C(F)(F)OC(F)(F)C(F)(F)C(F)(F)C(F)(F)F` [Perfluoro-3,6,9-trioxatridecanoic_acid], with more than 100 µM; and `O=C(O)C(F)(F)OC(F)(F)C(F)(F)OC(F)(F)F` [Perfluoro-3,6-dioxaheptanoic_acid], with more than 100 µM.
In turn, `O=C(O)C(F)(F)OC(F)(F)C(F)(F)OC(F)(F)C(=O)O` [Perfluoro-3,6-dioxaoctane-1,8-dioic_acid] gave a POD vs vehicle of more than 100 µM.
On the same count and under the same terms, the value for `O=C(O)C(F)(F)C(F)(F)OC(F)(F)F` [Perfluoro-3-methoxypropanoic_acid] was more than 100 µM.
On the same count and under the same terms, then `O=C(O)C(F)(F)C(F)(F)C(F)(F)OC(F)(C(F)(F)F)C(F)(F)F` [Perfluoro-4-isopropoxybutanoic_acid], with more than 100 µM; and `O=S(=O)(O)C(F)(F)C(F)(F)C(F)(F)C(F)(F)F` [Perfluorobutanesulfonic_acid], with more than 100 µM.

In another experiment the test system is 20032 (donor line of iPSC-derived cardiomyocytes). The description is as above. The settings on record: exposure time: 90 min. How it is done:
as §1
Compound `O=S(=O)(O)CCC(F)(F)C(F)(F)C(F)(F)C(F)(F)C(F)(F)C(F)(F)C(F)(F)C(F)(F)F` [8:2 Fluorotelomer sulfonic acid] returned a POD vs vehicle of more than 100 µM.
The same measure, in the same setting: the value for `O=C(O)C(F)(F)C(F)(F)C(F)(F)C(F)(F)C(F)(F)C(F)(F)C(F)(F)C(F)(F)Cl` [9-Chloro-perfluorononanoic_acid] was more than 100 µM.
`O=P(O)(O)CCC(F)(F)C(F)(F)C(F)(F)C(F)(F)C(F)(F)C(F)(F)C(F)(F)C(F)(F)F` [((Perfluorooctyl)ethyl)phosphonic_acid] showed a POD vs vehicle of more than 100 µM.
The same measure, in the same setting: then `O=C([O-])C(F)(F)C(F)(F)C(F)(F)C(F)(F)C(F)(F)C(F)(F)C(F)(F)F.[NH4+]` [Ammonium_perfluorooctanoate], with more than 100 µM; and `OCC(F)(F)C(F)(F)C(F)(F)C(F)(F)C(F)(F)C(F)F` [Dodecafluoroheptanol], with 47.7 µM.
As for `OCC(F)(F)OC(F)(F)C(F)(F)OC(F)(F)C(F)(F)OC(F)(F)F` [Fluorinated_triethylene_glycol_monomethyl_ether], the POD vs vehicle was more than 100 µM.
The same measure, in the same setting: the value for `OCC(F)(F)C(F)(F)C(F)(F)F` [Heptafluorobutanol] was more than 100 µM; that for `NC(=O)C(F)(F)C(F)(F)C(F)(F)F` [Heptafluorobutyramide] was more than 100 µM.
In turn, `OCC(F)(F)C(F)(F)C(F)(F)CO` [Hexafluoroamylene_glycol] displayed a POD vs vehicle of more than 100 µM.
The same measure, in the same setting: then `COC(=O)C(F)(F)C(F)(F)OC(F)(C(F)(F)F)C(F)(F)OC(F)=C(F)F` (stereo not given) [Methyl_perfluoro(3-(1-ethenyloxypropan-2-yloxy)propanoate)], with more than 100 µM.
